Test results reported in patent US20220275461A1, “DIAGNOSTICS AND METHODS FOR PROGNOSING RESPONSE TO IMMUNOTHERAPY BASED ON THE METHYLATION STATUS OF IMMUNE SYNAPSE GENE SIGNATURE” (H. LEE MOFFITT CANCER CENTER AND RESEARCH INSTITUTE, INC., priority 2019, published 2022).

Legend:
[1] = tested on: CD40 gene in CAMA1 cell line; details: mock- vs azacytidine-treated, FIG. 18F; cited from earlier work
[2] = tested on: epithelial cancer cell lines; test: PC1 scores of mock- or 5-azacitidine-treated cancer cell lines (GSE57342 dataset); type: cell-based; details: 26 epithelial cancer cell lines, mock- vs 5-azacitidine-treated; FIG. 18E
Text: The GSE57342 processed dataset was downloaded and cell lines with more than three Mock- and three 5-azacitidine-treated samples was selected for analysis.
We used the first and second principal component (a weighted average β-values among the CSG and ICG probes), as they account for the largest variability in the data, to represent the overall methylation status for 8,931 tumor and normal samples in the TCGA database. That is, PC=Σwixi, a weighted average β-values among the selected CSG and ICG probes, where xi represents gene i β-value, wi is the corresponding weight (loading coefficient) with Σwi^2=1, and the wi values maximize the variance of Σwixi. For each gene, a set of probes were selected using the following criteria to minimize noise, r<−0.2 (methylation vs gene expression) located in the TSS1500, TSS200 or the 5′UTR (Table 4). Each probe was centered but not scaled before PCA calculations.

What does the source list for Nc1ncn([C@@H]2O[C@H](CO)[C@@H](O)[C@H]2O)c(=O)n1 [5-azacytidine]?
methylation status of CD40 gene [1]: demethylation of CD40; PC1 score (hypermethylation of CSGs) [2]: significant decrease in PC1 scores
